Experimental findings from patent US20250179066A1, “ZWITTERIONIC ANTIBACTERIAL COMPOUNDS” (Hoffmann-La Roche Inc., priority 2022, published 2025) are described below.

Where a name gives a salt, the structure may show the parent alone.

The test deals with Acinetobacter baumannii ATCC17961. Briefly: Antimicrobial susceptibility testing: 90% growth inhibitory concentration (IC90) determination. In kind it is cell-based. The settings on record: Acinetobacter baumannii, ATCC17961, 16 h, 90% growth inhibitory concentration against Acinetobacter baumannii ATCC17961, Iso-Sensitest broth, OD 600 nm over 16 h; read-out: ATCC 17961 IC90. A digest of the protocol:
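Twofold serial dilutions (e.g. 10 to 0.0195 μM final) in Iso-Sensitest broth inoculated at ~5×10^5 CFU/mL, incubated at 35±2° C. OD600 read every minute for 16 h; IC90 is the concentration inhibiting 90% of growth during logarithmic phase.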
As usually defined, the IC90 is the concentration needed for an effect of 90%. As for `Cn1c(-c2cn(-c3ccc4[nH]ccc4n3)nc2C(F)(F)F)cnc1C(=O)Nc1ccc(C(=O)N2CCN(C(=O)C3CC[N+](CC(=O)O)(CC4CNC4)CC3)CC2)c(Cl)c1` (stereo not shown) [Example 18, 2-[1-(azetidin-3-ylmethyl)-4-[4-[2-chloro-4-[[1-methyl-5-[1-(1H-pyrrolo[3,2-b]pyridin-5-yl)-3-(trifluoromethyl)pyrazol-4-yl]imidazole-2-carbonyl]amino]benzoyl]piperazine-1-carbonyl]piperidin-1-ium-1-yl]acetic acid. 1:1 formate], the IC90 amounted to 260 nM.
In the case of `Cn1c(-c2cn(-c3ccc(NCCO)cn3)nc2C(F)(F)F)cnc1C(=O)Nc1ccc(C(=O)N2CCN(C(=O)[C@H]3CC[N@+](CC(=O)O)(CC4CNC4)CC3)CC2)c(Cl)c1` [Example 38, cis-2-[1-(azetidin-3-ylmethyl)-4-[4-[2-chloro-4-[[5-[1-[5-(2-hydroxyethylamino)-2-pyridyl]-3-(trifluoromethyl)pyrazol-4-yl]-1-methyl-imidazole-2-carbonyl]amino]benzoyl]piperazine-1-carbonyl]piperidin-1-ium-1-yl]acetic acid; formate], the IC90 was 430 nM.
With `Cn1c(-c2cn(-c3ccc(N)cn3)nc2C(F)(F)F)cnc1C(=O)Nc1ccc(C(=O)N2CCN(C(=O)[C@@H](N)CC(=O)O)CC2)c(Cl)c1` [Example 91, (3S)-3-amino-4-[4-[4-[[5-[1-(5-amino-2-pyridyl)-3-(trifluoromethyl)pyrazol-4-yl]-1-methyl-imidazole-2-carbonyl]amino]-2-chloro-benzoyl]piperazino]-4-keto-butyric acid. 1:1 2,2,2-trifluoroacetic acid], the IC90 amounted to 1530 nM.
Regarding `CN(C)c1ccc(-n2cc(-c3cnc(C(=O)Nc4ccc(C(=O)N5CCN(C(=O)C6CC[N+](CC(=O)O)(CC7CNC7)CC6)CC5)c(Cl)c4)n3C)c(C(F)(F)F)n2)nc1` (stereo not shown) [Example 45, 2-[1-(azetidin-3-ylmethyl)-4-[4-[2-chloro-4-[[5-[1-[5-(dimethylamino)-2-pyridyl]-3-(trifluoromethyl)pyrazol-4-yl]-1-methyl-imidazole-2-carbonyl]amino]benzoyl]piperazine-1-carbonyl]piperidin-1-ium-1-yl]acetic acid. 1:1 formate], the IC90 is 500 nM.
As to `Cn1c(-c2cn(-c3ccc4[nH]ccc4n3)nc2C(F)(F)F)cnc1C(=O)Nc1ccc(C(=O)N2CCN(C(=O)[C@H]3CC[N@+](CC(=O)O)(CC4CNC4)CC3)CC2)c(Cl)c1` [Example 27, cis-2-[1-(azetidin-3-ylmethyl)-4-[4-[2-chloro-4-[[1-methyl-5-[1-(1H-pyrrolo[3,2-b]pyridin-5-yl)-3-(trifluoromethyl)pyrazol-4-yl]imidazole-2-carbonyl]amino]benzoyl]piperazine-1-carbonyl]piperidin-1-ium-1-yl]acetic acid. 1:1 2,2,2-trifluoroacetate], the IC90 came to 360 nM.
On to `Cn1c(-c2cn(-c3ccc(NCC4CCNCC4)cn3)nc2C(F)(F)F)cnc1C(=O)Nc1ccc(C(=O)N2CCN(C(=O)C3CC[N+](CC(=O)O)(CC4CNC4)CC3)CC2)c(Cl)c1` (stereo not shown) [Example 5, 2-[1-(azetidin-3-ylmethyl)-4-[4-[2-chloro-4-[[1-methyl-5-[1-[5-(4-piperidylmethylamino)-2-pyridyl]-3-(trifluoromethyl)pyrazol-4-yl]imidazole-2-carbonyl]amino]benzoyl]piperazine-1-carbonyl]piperidin-1-ium-1-yl]acetic acid. 1:1 2,2,2-trifluoroacetate], for which the IC90 was 590 nM.
The result for `Cn1c(-c2cn(-c3cc4[nH]cc(C(=O)N5CCNCC5)c4cn3)nc2C(F)(F)F)cnc1C(=O)Nc1ccc(C(=O)N2CCN(C(=O)[C@H]3CC[N@+](CC(=O)O)(CC4CNC4)CC3)CC2)c(Cl)c1` [Example 147, cis-2-[1-(azetidin-3-ylmethyl)-4-[4-[2-chloro-4-[[1-methyl-5-[1-[3-(piperazine-1-carbonyl)-1H-pyrrolo[3,2-c]pyridin-6-yl]-4-(trifluoromethyl)pyrazol-4-yl]imidazole-2-carbonyl]amino]benzoyl]piperazine-1-carbonyl]piperidin-1-ium-1-yl]acetic acid. 1:1 2,2,2-trifluoroacetate] reads 181 nM; that for `Cn1c(-c2cn(-c3ccc4[nH]c(C(CO)CO)cc4n3)nc2C(F)(F)F)cnc1C(=O)Nc1ccc(C(=O)N2CCN(C(=O)[C@H]3CC[N@@+](CCCN)(CC(=O)O)CC3)CC2)c(Cl)c1` [Example 102, cis-2-[1-(3-aminopropyl)-4-[4-[2-chloro-4-[[5-[1-[2-[2-hydroxy-1-(hydroxymethyl)ethyl]-1H-pyrrolo[3,2-b]pyridin-5-yl]-3-(trifluoromethyl)pyrazol-4-yl]-1-methyl-imidazole-2-carbonyl]amino]benzoyl]piperazine-1-carbonyl]piperidin-1-ium-1-yl]acetic acid;formate], 445 nM; that for `COCCNc1ccc(-n2cc(-c3cnc(C(=O)Nc4ccc(C(=O)N5CCN(C(=O)[C@H]6CC[N@+](CC(=O)O)(CC7CNC7)CC6)CC5)c(F)c4)n3C)c(C(F)(F)F)n2)c(F)c1` [Example 124, cis-2-[1-(azetidin-3-ylmethyl)-4-[4-[2-fluoro-4-[[5-[1-[2-fluoro-4-(2-methoxyethylamino)phenyl]-3-(trifluoromethyl)pyrazol-4-yl]-1-methyl-imidazole-2-carbonyl]amino]benzoyl]piperazine-1-carbonyl]piperidin-1-ium-1-yl]acetic acid; formate], 103 nM.
For the compound `Cn1c(-c2cn(-c3ccc(CCN)cn3)nc2C(F)(F)F)cnc1C(=O)Nc1ccc(C(=O)N2CCN(C(=O)C3CC[N+](CC(=O)O)(CC4CNC4)CC3)CC2)c(Cl)c1` (stereo not shown) [Example 1, 2-[4-[4-[4-[[5-[1-[5-(2-Aminoethyl)-2-pyridyl]-3-(trifluoromethyl)pyrazol-4-yl]-1-methyl-imidazole-2-carbonyl]amino]-2-chloro-benzoyl]piperazine-1-carbonyl]-1-(azetidin-3-ylmethyl)piperidin-1-ium-1-yl]acetic Acid.1:1 2,2,2-trifluoroacetic Acid.1:1 2,2,2-trifluoroacetate], the IC90 came to 330 nM.
On to `Cn1c(-c2cn(-c3ccc(NCC4(N)CCCC4)cn3)nc2C(F)(F)F)cnc1C(=O)Nc1ccc(C(=O)N2CCN(C(=O)C3CC[N+](CC(=O)O)(CC4CNC4)CC3)CC2)c(Cl)c1` (stereo not shown) [Example 24, 2-[4-[4-[4-[[5-[1-[5-[(1-aminocyclopentyl)methylamino]-2-pyridyl]-3-(trifluoromethyl)pyrazol-4-yl]-1-methyl-imindazole-2-carbonyl]amino]-2-chloro-benzoyl]piperazine-1-carbonyl]-1-(azetidin-3-ylmethyl)piperidin-1-ium-1-yl]acetic acid. 1:1 2,2,2-trifluoroacetic acid. 1:1 2,2,2-trifluoroacetate], for which the IC90 is 350 nM.
As for `Cn1c(-c2cn(-c3ccc4[nH]c([C@H](O)CO)cc4n3)nc2C(F)(F)F)cnc1C(=O)Nc1ccc(C(=O)N2CCN(C(=O)[C@H]3CC[N@+](CC(=O)O)(CC4CNC4)CC3)CC2)c(Cl)c1` [Example 105, cis-2-[1-(azetidin-3-ylmethyl)-4-[4-[2-chloro-4-[[5-[1-[2-[(1S)-1,2-dihydroxyethyl]-1H-pyrrolo[3,2-b]pyridin-5-yl]-3-(trifluoromethyl)pyrazol-4-yl]-1-methyl-imidazole-2-carbonyl]amino]benzoyl]piperazine-1-carbonyl]piperidin-1-ium-1-yl]acetic acid;2,2,2-trifluoroacetate], the IC90 worked out at 525 nM.
As for `Cn1c(-c2cn(-c3ccc4c(ccn4CC#N)n3)nc2C(F)(F)F)cnc1C(=O)Nc1ccc(C(=O)N2CCN(C(=O)[C@H]3CC[N@+](CC(=O)O)(CC4CNC4)CC3)CC2)c(Cl)c1` [Example 197, cis-2-[1-(azetidin-3-ylmethyl)-4-[4-[2-chloro-4-[[5-[1-[1-(cyanomethyl)pyrrolo[3,2-b]pyridin-5-yl]-3-(trifluoromethyl)pyrazol-4-yl]-1-methyl-imidazole-2-carbonyl]amino]benzoyl]piperazine-1-carbonyl]piperidin-1-ium-1-yl]acetic acid. 1:1 2,2,2-trifluoroacetate], the IC90 was determined as 171 nM.
With `Cn1c(-c2cn(-c3ccc(NC[C@@H]4CCCN4)cn3)nc2C(F)(F)F)cnc1C(=O)Nc1ccc(C(=O)N2CCN(C(=O)C3CC[N+](CC(=O)O)(CC4CNC4)CC3)CC2)c(Cl)c1` (stereo partly drawn) [Example 28, 2-[1-(azetidin-3-ylmethyl)-4-[4-[2-chloro-4-[[1-methyl-5-[1-[5-[[(2S)-pyrrolidin-2-yl]methylamino]-2-pyridyl]-3-(trifluoromethyl)pyrazol-4-yl]imidazole-2-carbonyl]amino]benzoyl]piperazine-1-carbonyl]piperidin-1-ium-1-yl]acetic acid. 1:1 2,2,2-trifluoroacetic acid. 1:1 2,2,2-trifluoroacetate], the IC90 turned out to be 360 nM.
`Cn1c(-c2cn(-c3ccc(N)nc3)nc2C(F)(F)F)cnc1C(=O)Nc1ccc(C(=O)N2CCN(C(=O)C3CC[N+](CC(=O)O)(CC4CNC4)CC3)CC2)c(Cl)c1` (stereo not shown) [Example 7, 2-[4-[4-[4-[[5-[1-(6-amino-3-pyridyl)-3-(trifluoromethyl)pyrazol-4-yl]-1-methyl-imidazole-2-carbonyl]amino]-2-chloro-benzoyl]piperazine-1-carbonyl]-1-(azetidin-3-ylmethyl)piperidin-1-ium-1-yl]acetic acid. 1:1 2,2,2-trifluoroacetate]: the concentration for an effect of 90% (IC90) is 1480 nM.
For `C[C@@H](O)c1cc2nc(-n3cc(-c4cnc(C(=O)Nc5ccc(C(=O)N6CCN(C(=O)[C@H]7CC[N@+](CC(=O)O)(CC8CNC8)CC7)CC6)c(Cl)c5)n4C)c(C(F)(F)F)n3)ccc2[nH]1` [Example 150, cis-2-[1-(azetidin-3-ylmethyl)-4-[4-[2-chloro-4-[[5-[1-[2-[(1R)-1-hydroxyethyl]-1H-pyrrolo[3,2-b]pyridin-5-yl]-3-(trifluoromethyl)pyrazol-4-yl]-1-methyl-imidazole-2-carbonyl]amino]benzoyl]piperazine-1-carbonyl]piperidin-1-ium-1-yl]acetic acid;formate], the concentration for an effect of 90% (IC90) was determined as 217 nM.
